Reference: publication PMC10843894 (Cell and tissue research, 2011)
Ends that are not written are not given here.

How the values were obtained:
[1] = test system: plasma membrane Ca^2+ channels; assay type: cell-based, rat
Th gene = settings: cited from earlier work; for transcription of Th (PACAP and VIP, literature): porcine/bovine chromaffin cells, PC12 cells, CATH.a cells, ref Isobe et al. 1996, Park et al. 1999, Tonshoff et al. 1997, Corbitt et al. 1998, 2002, Yukimasa et al. 1999, Muller et al. 1997
VPAC1 = target: T1, VPAC1 (Rattus norvegicus, UniProt P30083); experiment: Blockade of secretin-induced Th transcription by VPAC1 antagonist; settings: pre-treatment before secretin 0.1 μM (Fig. 1d)
T1 sequence (P30083 31-459): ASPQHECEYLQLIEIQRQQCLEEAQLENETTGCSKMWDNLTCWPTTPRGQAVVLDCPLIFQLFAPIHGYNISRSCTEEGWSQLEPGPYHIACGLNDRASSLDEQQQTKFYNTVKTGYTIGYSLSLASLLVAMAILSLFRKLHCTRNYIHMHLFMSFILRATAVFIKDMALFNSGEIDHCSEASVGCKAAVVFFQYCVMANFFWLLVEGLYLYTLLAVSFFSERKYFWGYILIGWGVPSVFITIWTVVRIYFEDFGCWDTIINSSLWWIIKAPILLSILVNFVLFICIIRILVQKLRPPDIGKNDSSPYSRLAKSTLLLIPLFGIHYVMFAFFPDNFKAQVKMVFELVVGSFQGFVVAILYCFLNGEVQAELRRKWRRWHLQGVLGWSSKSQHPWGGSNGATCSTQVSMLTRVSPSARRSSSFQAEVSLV

intracellular Ca^2+ = experiment: Secretin-induced catecholamine secretion with intracellular Ca2+ chelator; assay type: cell-based, rat; settings: BAPTA-AM 50 μM pre-treatment 30 min; secretin 8 μM, 20 min, Ca2+-free buffer + 0.5 mM EGTA
catecholamine secretion = settings: cited from earlier work
cAMP in PC12 cells = settings: cited from earlier work
PLC-β = experiment: Inhibition of secretin-evoked catecholamine secretion by PLC-β blockade; assay type: cell-based, rat; settings: secretin 8 μM, 20 min
PAC1 receptor = PAC1 receptor agonism inferred from secretion concentrations; assay type: cell-based; settings: inferred from secretion findings
phospholipase C = settings: U-73122 20 μM, secretin 8 μM, 0.5 min
[2] = test system: plasma membrane Ca^2+ channels; assay type: cell-based, rat; settings: ZnCl2 100 μM; data not shown
SCTR = experiment: Inhibition of secretin-induced catecholamine secretion by SCTR antagonist; assay type: cell-based, rat; settings: antagonist up to 20 μM, secretin 6 μM, 30 min

## ω-conotoxin MVIIC
[1]
  effect of Ca2+ channel inhibitors on secretin-induced catecholamine secretion: little to no effect

## VIP6–28: VPAC1 (VIP6–28) antagonist (FTDNYTRLRKQMAVKKYLNSILN; ends and bridges not checked; UniProt P01282 130-152, looked up, fragment)
Th gene; ref Wessels-Reiker et al. 1993
  effect of VPAC1 antagonist on Th gene expression induced by secretin or PHI: no significant effect
  effect of VPAC1 antagonist on VIP-increased Th mRNA: lowers the effect of VIP on increasing Th mRNA
VPAC1
  effect on secretin-induced transcription of Th gene, VPAC1 antagonist: Failure

## CC(=O)OCOC(=O)CN(CC(=O)OCOC(C)=O)c1ccccc1OCCOc1ccccc1N(CC(=O)OCOC(C)=O)CC(=O)OCOC(C)=O [BAPTA-AM]
Intracellular Ca^2+
  effect of BAPTA-AM on secretin-induced catecholamine secretion: completely abolished

## CN1CCC[C@H]1c1cccnc1 [nicotine]
Catecholamine secretion; ref Hamelink et al. 2002
  prolonged catecholamine secretion, nicotine (literature): does not cause prolonged catecholamine secretion

## ω-conotoxin GVIA
[1]
  effect of Ca2+ channel inhibitors on secretin-induced catecholamine secretion: little to no effect

## Pituitary adenylyl cyclase activating polypeptide [PACAP]
Th gene
  transcription of Th (PACAP and VIP, literature): augment the transcription of Th
Catecholamine secretion; ref Chowdhury et al. 1994, Przywara et al. 1996
  concentration achieving significant catecholamine secretion (PACAP): 10 nM
Catecholamine secretion; ref Taupenot et al. 1999
  prolonged catecholamine secretion, PACAP (literature): long-lasting
cAMP in PC12 cells; ref Hamelink et al. 2002
  intracellular cAMP levels in chromaffin cells (literature), PACAP: elevated

## COc1ccc2c(c1)CC[C@@H]1[C@@H]2CC[C@]2(C)[C@@H](NCCCCCCN3C(=O)CCC3=O)CC[C@@H]12 [U-73343]
PLC-β; U-73343 10 μM
  effect of inactive isomer on secretin-induced secretion: did not affect secretin-induced secretion

## Vasoactive intestinal polypeptide [VIP]
Th gene
  transcription of Th (PACAP and VIP, literature): augment the transcription of Th
Catecholamine secretion; ref Guo and Wakade 1994, Wakade et al. 1991
  concentration achieving significant catecholamine secretion (VIP): 300 nM
Catecholamine secretion; ref Malhotra et al. 1988
  source of Ca2+ for VIP-induced catecholamine secretion: depends solely upon Ca^2+ mobilization from intracellular stores
PAC1 receptor
  agonism at PAC1 receptor: poor agonists for the PAC1 receptor
cAMP in PC12 cells; ref Anderova et al. 1998
  intracellular cAMP levels in chromaffin cells (literature), VIP: elevated

## COc1ccc2c(c1)CC[C@@H]1[C@@H]2CC[C@]2(C)[C@@H](NCCCCCCN3C(=O)C=CC3=O)CC[C@@H]12 [U73122]
Phospholipase C
  inhibition of IP3 levels by PLC blockade: ~ 61%
PLC-β; U-73122 10 μM
  inhibition of secretin-evoked catecholamine secretion by PLC-β inhibitor: ~ 54%

## [Cl-].[Cl-].[Zn+2] [ZnCl2]
[1]; ZnCl2 100 μM, secretin 8 μM, 20 min
  effect of non-specific Ca2+ channel blockade on secretin-induced secretion: ineffective
[2]
  block of PACAP-induced catecholamine secretion: completely blocked

## ω-agatoxin
[1]
  effect of Ca2+ channel inhibitors on secretin-induced catecholamine secretion: little to no effect

## secretin5–27: SCTR antagonist (secretin5–27) (TFTSELSRLREGARLQRLLQGLV; ends and bridges not checked; UniProt P09683 32-54, looked up, fragment)
SCTR
  effect of SCTR antagonist on secretin-induced secretion: failed to inhibit secretion
Th gene; ref Wessels-Reiker et al. 1993
  effect of SCTR antagonist on VIP- or PHI-induced Th gene expression: no significant effect
  effect of SCTR antagonist on secretin-induced Th gene expression (literature): reduces the effect of secretin
